Ki data for one compound are collected here from BindingDB's records for doi:10.1021/jm00398a022 (University of Wisconsin, 1988).

For orientation: Ki means the dissociation constant of the complex between target and ligand, obtained from inhibition or displacement. Read a low Ki as a stronger hold on the target.

The target in this assay is Cathepsin D (Oryctolagus cuniculus). The assay is described as follows: Inhibition of rabbit liver cathepsin D at pH 4.0.

In the case of `COC(=O)[C@H](Cc1ccccc1)NC(=O)[C@H](CC(C)C)NC(=O)CC(O)[C@H](CC(C)C)NC(=O)[C@H](Cc1c[nH]cn1)NC(=O)COC(=O)C(C)(C)C` (stereo partly drawn) [POA-His-Sta-Leu-PheOMe], the Ki amounted to 3.5 µM.
